According to patent US20250367226A1, “ANTI-MALASSEZIA AGENT” (N.T.H Co., Ltd., priority 2024, published 2025):
Structures can show the parent of a compound that is named as a salt.

Tested on: Malassezia globosa
Assay: Anti-Malassezia test (viability of Malassezia, WST microbial viability assay)
Conditions: for concentration required to inhibit the viability of Malassezia by 20%: 20% inhibition of viability; for viability at 10 µM / viability at 1 µM / viability at 100 µM: Malassezia globosa, 22 h, read-out: viability (%) of Malassezia, relative to negative control taken as 100; for anti-Malassezia effect compared with the positive control drugs: versus streptomycin sulfate, amorolfine hydrochloride, itraconazole
Description: The Malassezia strain was cultured in CHROMagar Malassezia/Candida prepared medium (Kanto Chemical Co., Ltd.).
In 1 L of distilled water were dissolved 10 g of D-glucose, 5 g of peptone, 3 g of yeast extract, 3 g of malt extract and 0.1 g of penicillin. The resulting solution was filtered and used for the experiments.
A suspension of Malassezia was prepared to an optical density equivalent to McFarland's Standard No. 3 and 0.5 mL of the suspension was added to tubes. Each of the prepared samples, oleic acid and the YM medium were mixed into the tubes, and Malassezia was cultured at 37° C. for 22 hours. The fungi were stained using Microbial viability assay kit-WST (Dojindo Laboratories) and cultured at 37° C. for 2 hours. The absorbance was measured to calculate the viability of Malassezia. The results are expressed as a percentage (%) relative to a negative control (“control”: with no addition of test substances) taken as 100. A lower percentage indicates a stronger anti-Malassezia effect. The values obtained in the experiments were expressed as the mean±S.E. The significance of the difference in the means between the test substance administration groups and the negative control group was tested by the Dunnett's test. The significance level was set at 5% or 1%.

SMILES | concentration required to inhibit the viability of Malassezia by 20% | viability at 10 µM [%] | viability at 1 µM [%] | viability at 100 µM [%] | anti-Malassezia effect compared with the positive control drugs
[H]/N=C(/N)N[C@H]1[C@H](O)[C@@H](O)[C@H](O[C@@H]2O[C@@H](C)[C@](O)(C=O)[C@H]2O[C@@H]2O[C@@H](CO)[C@H](O)[C@@H](O)[C@@H]2NC)[C@@H](N/C(N)=N\[H])[C@@H]1O [streptomycin sulfate, reference compound] | ≥ 137 µM | 106 | – | – | –
C[C@@H]1O[C@@H](OC[C@H]2O[C@@H](Oc3cc(O)c4c(=O)cc(-c5ccc(O)cc5)oc4c3)[C@H](O)[C@@H](O)[C@@H]2O)[C@H](O)[C@H](O)[C@H]1O [Compound 2, apigenin 7-O-α-L-rhamnopyranosyl-(1→6)-β-D-glucopyranoside] | – | 81.4 | 83.6 | 61.5 | comparable to or higher than that of the positive control drugs
CCC(C)n1ncn(-c2ccc(N3CCN(c4ccc(OCC5COC(Cn6cncn6)(c6ccc(Cl)cc6Cl)O5)cc4)CC3)cc2)c1=O (centres unmarked) [Itraconazole, itraconazole, reference compound] | about 10 μM | – | – | – | –
CC(=O)c1c(O)cc(O[C@@H]2OC(CO)[C@@H](O)C(O)C2O)c(O[C@@H]2OC(CO)[C@@H](O)C(O)C2O)c1O (some centres unmarked) [Compound 1, inermioside A] | – | 81.3 | 93.6 | 76.3 | comparable to or higher than that of the positive control drugs
